# Legend:
# Format in all cases: biochemical
# rSsHDAC-3 [1] = biological target: T1, rSsHDAC-3 (Sarcoptes scabiei, UniProt A0A834REN1); experiment: fluorogenic trypsin-coupled deacetylase assay (excitation […] nm, emission […] nm); conditions: HEPES pH 8.0, 1 mM MgCl2, 37 °C, 2 h
# T1 construct: ORF 411 residues (1,236 bp; amplified fragment printed as around 1,000 bp), pET32a(+) N-terminal Trx/His tag kept (about 18 kDa), 63 kDa on SDS-PAGE, E. coli BL21(DE3), soluble, Ni-NTA; no co-repressor partner
# T1 sequence (A0A834REN1 1-411): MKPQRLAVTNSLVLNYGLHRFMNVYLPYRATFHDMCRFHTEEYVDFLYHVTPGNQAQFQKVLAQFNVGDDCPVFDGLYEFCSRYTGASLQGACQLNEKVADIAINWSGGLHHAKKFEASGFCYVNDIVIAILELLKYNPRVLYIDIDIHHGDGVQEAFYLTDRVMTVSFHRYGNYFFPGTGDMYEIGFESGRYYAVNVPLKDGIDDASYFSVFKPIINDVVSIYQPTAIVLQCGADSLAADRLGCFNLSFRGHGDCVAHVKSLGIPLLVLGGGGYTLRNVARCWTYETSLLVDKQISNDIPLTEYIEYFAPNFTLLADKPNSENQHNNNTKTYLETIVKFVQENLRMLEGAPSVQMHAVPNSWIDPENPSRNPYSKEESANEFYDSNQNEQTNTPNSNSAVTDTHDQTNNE
# rSsHDAC-2 = biological target: T2, rSsHDAC-2 (Sarcoptes scabiei, UniProt A0A834RGW6); experiment: fluorogenic trypsin-coupled deacetylase assay; conditions: Boc-Lys(ε-Ac)-AMC substrate buffer 100 µM (25 of 50 µL), HEPES pH 8.0, 1 mM MgCl2, 37 °C, 2 h; inhibitor concentration as printed, but 1 µL of it added to 50 µL, so final concentration unclear
# T2 sequence (A0A834RGW6 1-304): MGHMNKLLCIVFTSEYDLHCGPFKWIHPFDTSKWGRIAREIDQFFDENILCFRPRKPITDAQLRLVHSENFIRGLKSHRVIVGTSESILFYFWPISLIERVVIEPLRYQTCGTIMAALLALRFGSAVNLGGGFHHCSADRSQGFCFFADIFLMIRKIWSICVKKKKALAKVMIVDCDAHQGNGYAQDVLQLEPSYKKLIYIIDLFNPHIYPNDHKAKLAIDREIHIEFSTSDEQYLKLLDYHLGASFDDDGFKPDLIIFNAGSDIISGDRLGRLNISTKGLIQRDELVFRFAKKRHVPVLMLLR
# rSsHDAC-3 [2] = biological target: T1, rSsHDAC-3; experiment: fluorogenic trypsin-coupled deacetylase assay
compound,measurement,setting,value
CC(=O)NCCCC[C@H](NC(=O)OC(C)(C)C)C(=O)Nc1ccc2c(C)cc(=O)oc2c1 [Boc-Lys(ε-Ac)-AMC],"fluorogenic trypsin-coupled deacetylase assay (excitation 355 nm, emission 460 n)",rSsHDAC-3 [1],whereas the intensity in the rSsHDAC-3 group increased significantly
COc1ccccc1NC(=O)NCc1ccc(C(=O)NO)cc1 [Elevenostat],% inhibition at 10 μM,rSsHDAC-2,81.2%
Nc1cc(F)ccc1NC(=O)/C=C/c1cnn(C/C=C/c2ccccc2)c1 [RGFP966],inhibition at 10 µM,rSsHDAC-3 [2],68.9%

# Reference: paper PMC11619365, “Histone deacetylase 2 and 3 of Sarcoptes scabiei: characterization of a potential drug target” (Microbiology Spectrum, 2024)
